Test results published in patent publication US12043632B2, “6-heteroaryloxy benzimidazoles and azabenzimidazoles as JAK2 inhibitors” (Ajax Therapeutics, Inc., priority 2020, dated 2024).

Molecular target: T1, JAK2 (JH1domain-catalytic, Y1007F,Y1008F) kinase (Homo sapiens, UniProt O60674, Y1007F/Y1008F)
T1 construct: JAK2 (JH1domain-catalytic, Y1007F,Y1008F) kinase was expressed as N-terminal fusion; made in house; host or cells: transiently transfected HEK293 cells
Assay: JAK2 JH1 Domain Binding Assay
Details: qPCR readout

T1 sequence (O60674 849-1124 Y1007F/Y1008F limits assumed): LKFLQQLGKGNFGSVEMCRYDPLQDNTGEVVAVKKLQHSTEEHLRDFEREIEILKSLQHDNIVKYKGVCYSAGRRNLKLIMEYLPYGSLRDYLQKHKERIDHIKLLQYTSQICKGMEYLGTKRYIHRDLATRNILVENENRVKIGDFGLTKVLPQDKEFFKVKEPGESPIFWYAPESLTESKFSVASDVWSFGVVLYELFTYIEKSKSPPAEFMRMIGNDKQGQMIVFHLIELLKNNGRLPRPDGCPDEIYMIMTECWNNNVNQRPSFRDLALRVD

| Kd [nM] | Structure (SMILES) |
| --- | --- |
| 10 to 50 | CNc1nccn2ncc(Oc3cnc4nc(Nc5cc(CN6CC(O)C6)cc(C(F)(F)F)c5)n(C)c4c3Cl)c12 [Example I-264, 1-(3-((7-chloro-1-methyl-6-((4-(methylamino)pyrazolo[1,5-a]pyrazin-3-yl)oxy)-1H-imidazo[4,5-b]pyridin-2-yl)amino)-5-(trifluoromethyl)benzyl)azetidin-3-ol] |
| < 10 | Cn1cc(C(F)(F)F)cc(Nc2nc3ncc(Oc4cnc5[nH]ccc5c4)c(C#N)c3n2C)c1=O [Example I-265, 6-((1H-pyrrolo[2,3-b]pyridin-5-yl)oxy)-1-methyl-2-((1-methyl-2-oxo-5-(trifluoromethyl)-1,2-dihydropyridin-3-yl)amino)-1H-imidazo[4,5-b]pyridine-7-carbonitrile] |
| < 10 | Cn1c(F)c(C2CC2)cc(Nc2nc3ncc(Oc4cnn5ccncc45)c(Cl)c3n2C)c1=O [Example I-266, 3-((7-chloro-1-methyl-6-(pyrazolo[1,5-a]pyrazin-3-yloxy)-1H-imidazo[4,5-b]pyridin-2-yl)amino)-5-cyclopropyl-6-fluoro-1-methylpyridin-2(1H)-one] |
| 50 to 1000 | Cc1nc(Nc2nc3ncc(Oc4cnn5ccncc45)c(Cl)c3n2C)nc(C)c1N1CCC1 [Example I-268, N-(5-(azetidin-1-yl)-4,6-dimethylpyrimidin-2-yl)-7-chloro-1-methyl-6-(pyrazolo[1,5-a]pyrazin-3-yloxy)-1H-imidazo[4,5-b]pyridin-2-amine] |
| < 10 | CN(C)[C@@H]1CCN(Cc2cc(Nc3nc4ncc(Oc5cnn6ccncc56)c(Cl)c4n3C)cc(C(F)(F)F)c2)C1 [Example I-271, (R)-7-chloro-N-(3-((3-(dimethylamino)pyrrolidin-1-yl)methyl)-5-(trifluoromethyl)phenyl)-1-methyl-6-(pyrazolo[1,5-a]pyrazin-3-yloxy)-1H-imidazo[4,5-b]pyridin-2-amine] |
| 10 to 50 | COCCOc1nccn2ncc(Oc3cnc4nc(Nc5cc(C(F)(F)F)n(C6CC7(COC7)C6)n5)n(C)c4c3Cl)c12 [Example I-273, N-(1-(2-oxaspiro[3.3]heptan-6-yl)-5-(trifluoromethyl)-1H-pyrazol-3-yl)-7-chloro-6-((4-(2-methoxyethoxy)pyrazolo[1,5-a]pyrazin-3-yl)oxy)-1-methyl-1H-imidazo[4,5-b]pyridin-2-amine] |
| 10 to 50 | CN(C)c1cc(Nc2nc3ncc(Oc4cnn5ccncc45)c(Cl)c3n2C)cc(C(F)(F)F)n1 [Example I-274, N^4-(7-chloro-1-methyl-6-(pyrazolo[1,5-a]pyrazin-3-yloxy)-1H-imidazo[4,5-b]pyridin-2-yl)-N^2,N^2-dimethyl-6-(trifluoromethyl)pyridine-2,4-diamine] |
| 10 to 50 | CNc1nccn2ncc(Oc3cnc4nc(Nc5cc(OCC6CN(C)C6)cc(C(F)(F)F)c5)n(C)c4c3Cl)c12 [Example I-275, 7-chloro-1-methyl-6-((4-(methylamino)pyrazolo[1,5-a]pyrazin-3-yl)oxy)-N-(3-((1-methylazetidin-3-yl)methoxy)-5-(trifluoromethyl)phenyl)-1H-imidazo[4,5-b]pyridin-2-amine] |
| 10 to 50 | CNc1nccn2ncc(Oc3cnc4nc(Nc5cc(C(F)(F)F)n([C@@H]6CCOC6)n5)n(C)c4c3Cl)c12 [Example I-276, (R)-7-chloro-1-methyl-6-((4-(methylamino)pyrazolo[1,5-a]pyrazin-3-yl)oxy)-N-(1-(tetrahydrofuran-3-yl)-5-(trifluoromethyl)-1H-pyrazol-3-yl)-1H-imidazo[4,5-b]pyridin-2-amine] |
| < 10 | Cn1c(Nc2cc(CN3CCCC3)cc(C(F)(F)F)c2)nc2ncc(Oc3cnn4ccncc34)c(Cl)c21 [Example I-277, 7-chloro-1-methyl-6-(pyrazolo[1,5-a]pyrazin-3-yloxy)-N-(3-(pyrrolidin-1-ylmethyl)-5-(trifluoromethyl)phenyl)-1H-imidazo[4,5-b]pyridin-2-amine] |
| < 10 | CC(=O)N1CC2(CC(n3nc(Nc4nc5ncc(Oc6cnn7ccccc67)c(Cl)c5n4C)cc3C(F)(F)F)C2)C1 [Example I-278, 1-(6-(3-((7-chloro-1-methyl-6-(pyrazolo[1,5-a]pyridin-3-yloxy)-1H-imidazo[4,5-b]pyridin-2-yl)amino)-5-(trifluoromethyl)-1H-pyrazol-1-yl)-2-azaspiro[3.3]heptan-2-yl)ethan-1-one] |
| < 10 | Cn1cc(C(F)(F)F)cc(Nc2nc3ncc(Oc4cnn5ccc(N6CCOCC6)cc45)c(C#N)c3n2C)c1=O [Example I-281, 1-methyl-2-((1-methyl-2-oxo-5-(trifluoromethyl)-1,2-dihydropyridin-3-yl)amino)-6-((5-morpholinopyrazolo[1,5-a]pyridin-3-yl)oxy)-1H-imidazo[4,5-b]pyridine-7-carbonitrile] |
| 10 to 50 | CNc1nccn2ncc(Oc3cnc4nc(Nc5cc(CN6CC[C@@H](N(C)C)C6)cc(C(F)(F)F)c5)n(C)c4c3Cl)c12 [Example I-282, (R)-7-chloro-N-(3-((3-(dimethylamino)pyrrolidin-1-yl)methyl)-5-(trifluoromethyl)phenyl)-1-methyl-6-((4-(methylamino)pyrazolo[1,5-a]pyrazin-3-yl)oxy)-1H-imidazo[4,5-b]pyridin-2-amine] |
| 10 to 50 | CN(C)[C@@H]1CCN(Cc2cc(C(F)(F)F)cc(Nc3nc4ncc(Oc5cnn6ccncc56)c(Cl)c4n3C)c2F)C1 [Example I-283, (R)-7-chloro-N-(3-((3-(dimethylamino)pyrrolidin-1-yl)methyl)-2-fluoro-5-(trifluoromethyl)phenyl)-1-methyl-6-(pyrazolo[1,5-a]pyrazin-3-yloxy)-1H-imidazo[4,5-b]pyridin-2-amine] |
| 10 to 50 | CNc1nccn2ncc(Oc3cnc4nc(Nc5cc(CN6CCCC6)cc(C(F)(F)F)c5)n(C)c4c3Cl)c12 [Example I-284, 7-chloro-1-methyl-6-((4-(methylamino)pyrazolo[1,5-a]pyrazin-3-yl)oxy)-N-(3-(pyrrolidin-1-ylmethyl)-5-(trifluoromethyl)phenyl)-1H-imidazo[4,5-b]pyridin-2-amine] |
| 10 to 50 | CN(C)[C@H]1CCN(Cc2cc(C(F)(F)F)cc(Nc3nc4ncc(Oc5cnn6ccncc56)c(Cl)c4n3C)c2F)C1 [Example I-285, (S)-7-chloro-N-(3-((3-(dimethylamino)pyrrolidin-1-yl)methyl)-2-fluoro-5-(trifluoromethyl)phenyl)-1-methyl-6-(pyrazolo[1,5-a]pyrazin-3-yloxy)-1H-imidazo[4,5-b]pyridin-2-amine] |
| 10 to 50 | CNc1nccn2ncc(Oc3cnc4nc(Nc5cc(CN6CC[C@H](N(C)C)C6)cc(C(F)(F)F)c5)n(C)c4c3Cl)c12 [Example I-286, (S)-7-chloro-N-(3-((3-(dimethylamino)pyrrolidin-1-yl)methyl)-5-(trifluoromethyl)phenyl)-1-methyl-6-((4-(methylamino)pyrazolo[1,5-a]pyrazin-3-yl)oxy)-1H-imidazo[4,5-b]pyridin-2-amine] |
| 10 to 50 | Cc1nc(Nc2nc3ncc(Oc4cnn5ccncc45)c(Cl)c3n2C)nc(C)c1N1CCCC1 [Example I-287, 7-chloro-N-(4,6-dimethyl-5-(pyrrolidin-1-yl)pyrimidin-2-yl)-1-methyl-6-(pyrazolo[1,5-a]pyrazin-3-yloxy)-1H-imidazo[4,5-b]pyridin-2-amine] |
